Consider ten compounds from ChEMBL document CHEMBL1201862, “PubChem BioAssay data set” (2004).

Test systems include NCI-H460; SK-MEL-5; SNB-19; UO-31; NCI/ADR-RES; HL-60; MDA-MB-231; CCRF-CEM; HOP-62; MOLT-4; MDA-MB-435; RPMI-8226; SR; SF-268; A498; SNB-75; OVCAR-5; PC-3; SK-OV-3; NCI-H522.
Common to all, as to experiment: NCI tumour cell line growth inhibition, 48 h

Each structure is given as a SMILES string.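 Dose response: 5 concentrations. Exposure: 48 h. Format: 96-well plates. Endpoint: linear interpolation; highest concentration if not reached. GI50 is the concentration that inhibits growth by half.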 The source made the active and inactive calls. No stated cut-off is given here; in the data, active = GI50 up to about 1.1 µM and inactive = higher.

Regarding `CCC(C)NC(=S)N/N=C(\C)c1ccccn1` (stereo unspecified), the GI50 with NCI-H460 is 0.15 µM (active); in the test with SK-MEL-5 it was 0.155 µM (active); with SNB-19, 1.45 µM (inactive); in the test on UO-31, 0.142 µM (active); in the test with NCI/ADR-RES, < 0.01 µM (active); with HL-60, < 0.01 µM (active). Further, the GI50 was 0.0543 µM (active) with MDA-MB-231; < 0.01 µM (active) with CCRF-CEM; 0.0348 µM (active) in the test on HOP-62; < 0.01 µM (active) in the test with MOLT-4; 0.824 µM (active) in the test on MDA-MB-435; < 0.01 µM (active) in the test on RPMI-8226. Moreover, the GI50 with SR was < 0.01 µM (active); with SF-268, 0.351 µM (active); in the test with A498, 0.102 µM (active); in the test on SNB-75, 0.452 µM (active); with OVCAR-5, 0.0991 µM (active); in the test with PC-3, < 0.01 µM (active). In addition, the GI50 in the test with SK-OV-3 is 0.188 µM (active).
Consider `CN(C)c1ccc(/C(Br)=C2\OC(=O)c3ccccc32)cc1`, for which the GI50 in the test on NCI-H460 was > 100 µM (inactive); with SK-MEL-5, 77.6 µM (inactive); with SNB-19, > 100 µM (inactive); in the test with UO-31 it was > 100 µM (inactive); in the test on NCI/ADR-RES it was 31.8 µM (inactive); with HL-60, 34 µM (inactive). Also, the GI50 in the test on MDA-MB-231 was > 100 µM (inactive); in the test with CCRF-CEM, 51.4 µM (inactive); in the test on HOP-62, > 100 µM (inactive); in the test on MOLT-4 it was 37.2 µM (inactive); with MDA-MB-435, 36.1 µM (inactive); in the test with RPMI-8226, 24.3 µM (inactive). Also, the GI50 in the test with SR is 34.8 µM (inactive); in the test with SF-268 it was > 100 µM (inactive); with A498, > 100 µM (inactive); in the test on SNB-75, 80.7 µM (inactive); in the test with OVCAR-5 it was 2.95 µM (inactive); in the test with PC-3, > 100 µM (inactive). In addition, the GI50 in the test on SK-OV-3 is > 100 µM (inactive).
As for `O=[N+]([O-])C(C(Cl)=C(Cl)Cl)=C(n1cncn1)n1cncn1`, the GI50 in the test with NCI-H460 was > 75.5 µM (inactive); with SK-MEL-5 it was 11.9 µM (inactive); in the test on SNB-19, > 100 µM (inactive); with UO-31, 18.5 µM (inactive); with NCI/ADR-RES, 25.1 µM (inactive); in the test with MDA-MB-231, 19.5 µM (inactive). Besides, the GI50 in the test with CCRF-CEM is 3.37 µM (inactive); with HOP-62 it was > 75.2 µM (inactive); in the test on NCI-H522 it was 14 µM (inactive); with MOLT-4, > 33 µM (inactive); in the test with MDA-MB-435, 30.8 µM (inactive); in the test with RPMI-8226, 17.1 µM (inactive). For the same compound, the GI50 with SR was 31.2 µM (inactive); in the test on SF-268, 17.1 µM (inactive); in the test with A498, > 100 µM (inactive); in the test on SNB-75 it was > 44.2 µM (inactive); in the test on OVCAR-5, 15.6 µM (inactive); in the test on PC-3 it was 32.1 µM (inactive). Further, the GI50 with SK-OV-3 was > 100 µM (inactive).
As to `CC(C)c1ccc2c(c1)/C(=C1/Nc3ccccc3C1=O)C(=O)N2`, the GI50 in the test with NCI-H460 is 9.27 µM (inactive); in the test on SK-MEL-5 it was 27.2 µM (inactive); in the test with SNB-19, 13 µM (inactive); with UO-31 it was 6.5 µM (inactive); with NCI/ADR-RES it was 17 µM (inactive); with MDA-MB-231, 5.85 µM (inactive). Moreover, the GI50 in the test on CCRF-CEM was 27.3 µM (inactive); in the test on HOP-62 it was 4.57 µM (inactive); in the test with NCI-H522, 25.5 µM (inactive); in the test with MOLT-4 it was 22.1 µM (inactive); in the test with MDA-MB-435, 25.8 µM (inactive); with RPMI-8226, 27.8 µM (inactive). Moreover, the GI50 in the test on SR was 18.4 µM (inactive); with SF-268 it was 15.3 µM (inactive); with A498, 2.34 µM (inactive); in the test on SNB-75 it was 3.4 µM (inactive); with OVCAR-5 it was 27.7 µM (inactive); with PC-3 it was 8.85 µM (inactive). The GI50 in the test on SK-OV-3 was 3.75 µM (inactive).
`CC(C)CCCC(C)[C@H]1CCC2[C@@H]3CCC4Cc5nc6c(nc5C[C@]4(C)C3CC[C@@]21C)CC1CC[C@@H]2C(CC[C@@]3(C)C2CC[C@@H]3O)[C@@]1(C)C6` (stereo partly specified): the GI50 in the test with NCI-H460, in the test on SK-MEL-5, in the test on SNB-19, with UO-31, with NCI/ADR-RES and in the test with HL-60 was > 100 µM (inactive) in each case. The GI50 in the test with MDA-MB-231, with CCRF-CEM, in the test on HOP-62, in the test with MOLT-4, in the test on MDA-MB-435 and with RPMI-8226 was > 100 µM (inactive) throughout. Further, the GI50 with SR was > 100 µM (inactive); with SF-268, > 100 µM (inactive); with A498, > 100 µM (inactive); in the test with SNB-75, 62.2 µM (inactive); with OVCAR-5, > 100 µM (inactive); with PC-3, > 100 µM (inactive). For the same compound, the GI50 in the test with SK-OV-3 is > 100 µM (inactive).
In the case of `Cc1ccc([N+](=O)[O-])cc1S(=O)(=O)Nc1ccc(C2=NN(c3ccc([N+](=O)[O-])cc3[N+](=O)[O-])C(c3ccccc3O)C2)cc1` (stereo unspecified), the GI50 in the test with SK-MEL-5 was 20 µM (inactive); with SNB-19, 47.1 µM (inactive); with UO-31, 24.5 µM (inactive); with NCI/ADR-RES it was 27.9 µM (inactive); in the test with HL-60, 27.4 µM (inactive); with MDA-MB-231, 20.6 µM (inactive). Further, the GI50 in the test on CCRF-CEM was 25 µM (inactive); in the test on HOP-62, 36.3 µM (inactive); in the test with NCI-H522, 21 µM (inactive); with MOLT-4, 12.7 µM (inactive); in the test on MDA-MB-435, 39.4 µM (inactive); with RPMI-8226, 49.1 µM (inactive). The GI50 in the test with SR is 27.2 µM (inactive); with SF-268, 35.6 µM (inactive); in the test with SNB-75, 40.4 µM (inactive); in the test on OVCAR-5 it was > 100 µM (inactive); in the test on PC-3 it was 36.4 µM (inactive); with SK-OV-3 it was 57 µM (inactive).
Regarding `COc1cc(OC)cc(N(C)Cc2cnc3nc(N)nc(N)c3c2C)c1`, the GI50 in the test on NCI-H460 is 0.474 µM (active); with SK-MEL-5 it was 0.615 µM (active); in the test with SNB-19, 12.9 µM (inactive); in the test with UO-31 it was 5.52 µM (inactive); in the test with NCI/ADR-RES, 5.65 µM (inactive); with MDA-MB-231, 21.3 µM (inactive). Besides, the GI50 with CCRF-CEM is 2.47 µM (inactive); with HOP-62 it was 0.995 µM (active); in the test on NCI-H522, 2.21 µM (inactive); in the test on MOLT-4 it was 0.741 µM (active); with MDA-MB-435, 0.759 µM (active); with RPMI-8226, > 22 µM (inactive). The GI50 is 0.541 µM (active) with SR; 0.745 µM (active) with SF-268; 18.7 µM (inactive) in the test with A498; 0.0571 µM (active) in the test on SNB-75; 0.757 µM (active) in the test on OVCAR-5; 0.565 µM (active) in the test with PC-3. The GI50 in the test with SK-OV-3 is 13.6 µM (inactive).
Consider `CC(NS(C)(=O)=O)c1ccccc1` (stereo unspecified), for which the GI50 with NCI-H460, in the test with SK-MEL-5, with SNB-19, in the test on UO-31, with NCI/ADR-RES and in the test on HL-60 was > 100 µM (inactive) throughout. In addition, the GI50 in the test on MDA-MB-231, in the test on CCRF-CEM, with HOP-62, in the test on NCI-H522, with MOLT-4 and in the test on MDA-MB-435 was > 100 µM (inactive) in each case. For the same compound, the GI50 in the test with RPMI-8226 is > 100 µM (inactive); with SR it was > 100 µM (inactive); with SNB-75, > 100 µM (inactive); in the test with OVCAR-5 it was > 100 µM (inactive); with PC-3, > 100 µM (inactive); in the test on SK-OV-3, > 10 µM (inactive).
On to `CC(Cn1c(=O)oc2ccccc21)N(C)C` (stereo unspecified), for which the GI50 with NCI-H460, with SK-MEL-5, in the test with SNB-19, in the test on NCI/ADR-RES, with HL-60 and in the test with MDA-MB-231 was > 100 µM (inactive) each time. For the same compound, the GI50 with CCRF-CEM, in the test on HOP-62, in the test with MOLT-4, with MDA-MB-435, in the test on RPMI-8226 and in the test on SR was > 100 µM (inactive) throughout. Moreover, the GI50 with SF-268, with A498, with SNB-75, in the test with OVCAR-5, in the test with PC-3 and in the test on SK-OV-3 was > 100 µM (inactive) in each case.
With `O=C(CC(C(=O)c1cccs1)c1ccc2c(c1)OCO2)c1ccc(Br)cc1` (stereo unspecified), the GI50 in the test with NCI-H460 was > 100 µM (inactive); with SK-MEL-5, > 100 µM (inactive); in the test on SNB-19 it was 8.51 µM (inactive); in the test with UO-31, 14.9 µM (inactive); in the test on NCI/ADR-RES, > 100 µM (inactive); in the test with HL-60, > 100 µM (inactive). Also, the GI50 in the test on MDA-MB-231, in the test on CCRF-CEM, with HOP-62, with MOLT-4, with MDA-MB-435 and in the test with RPMI-8226 was > 100 µM (inactive) each time. In addition, the GI50 in the test with SR, in the test on SF-268, with A498, in the test with SNB-75, in the test on PC-3 and in the test on SK-OV-3 was > 100 µM (inactive) each time.
